Reference: article PMC3463238 (Toxicology letters, 2012)
Like-named read-outs stand apart in the source and are kept apart here. Marks after values point to notes of the source that are not given here.

What was measured:
[1] = Reactivity of styrene oxide and halogenated styrene oxides to cysteamine; format: physicochemical; details: oxide 1.0 μM, cysteamine 100 μM, phosphate buffer, 37 °C
[2] = tested on: cellular proteins of wild-type cells; details: human, 24 h, 100 μM
in vitro [3] = details: human
[4] = tested on: CYP2E1 transgenic cells (h2E1); details: for Decrease in cell viability relative to vehicle group: 24 h, 100 μM
recombinant human CYP2E1 = recombinant human CYP2E1 (Homo sapiens, UniProt P05181); details: pH 7.4
Chain of recombinant human CYP2E1 (P05181 whole entry): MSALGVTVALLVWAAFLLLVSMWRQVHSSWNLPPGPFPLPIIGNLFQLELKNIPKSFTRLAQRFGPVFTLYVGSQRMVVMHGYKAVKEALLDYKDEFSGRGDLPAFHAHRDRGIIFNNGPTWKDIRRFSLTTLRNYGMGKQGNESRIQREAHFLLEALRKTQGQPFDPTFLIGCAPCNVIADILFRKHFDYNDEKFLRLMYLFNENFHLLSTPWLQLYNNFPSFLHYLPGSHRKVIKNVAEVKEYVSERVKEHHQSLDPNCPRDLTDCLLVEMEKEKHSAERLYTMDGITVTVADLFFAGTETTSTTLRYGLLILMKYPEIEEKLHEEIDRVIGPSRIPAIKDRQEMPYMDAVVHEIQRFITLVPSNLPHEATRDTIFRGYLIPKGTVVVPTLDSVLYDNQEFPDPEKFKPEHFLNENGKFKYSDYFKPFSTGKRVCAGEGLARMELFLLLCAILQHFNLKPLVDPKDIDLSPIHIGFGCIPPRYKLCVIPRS

[5] = tested on: cellular proteins of CYP2E1 cells; details: human, 24 h, 100 μM
in vitro [6] = details: human; remark: listed apart in the source
[7] = tested on: cellular proteins of CYP2E1 cells; assay: Cellular protein covalent binding of 14C-labeled styrenes in CYP2E1 cells; details: 14C-labeled compound 100 μM, 24 h
[8] = Cytotoxicity in CYP2E1 transgenic cells; details: human
[9] = Cellular GSH contents in CYP2E1 cells; details: human
[10] = Observed stability of the compound; format: physicochemical

With `Brc1ccc(C2CO2)cc1` (stereo not drawn) [4-bromostyrene oxide] the “Rate constant for production of the cysteamine adducts” value (shortened to “Rate constant for production”) [1] was 29.3 ± 3.19 min⁻¹.

With `C=Cc1ccc(Br)cc1` [Br-ST, 4-bromostyrene] the “Fold lower radioactivity bound to proteins in wild-type cells than CYP2E1 cells” value [2] was 5 fold, the viability at 24 h, 100 µM (in vitro [3]) was 39.6 ± 4.1% and the “Decrease in cell viability relative to vehicle group” value ([4]; human) was 39.6%. For the same compound, the “Bioactivation index (k × Vmax/Km)” value (recombinant human CYP2E1) was 31.9 ± 3.48 ^c, the “Binding load (radioactivity bound to cellular proteins)” value [5] was 6.17 nmol/mg protein and the activity at 3 h, 100 µM (in vitro [6]) was 61 ± 6.5%.

With `c1ccc(C2CO2)cc1` (stereo not drawn) [styrene oxide] the “Rate constant for production” value [1] was 13.4 ± 1.88 min⁻¹.

With `C=Cc1ccccc1` [ST, Styrene] the “Binding load (radioactivity bound to cellular proteins)” value [7] was 2.02 nmol/mg protein, the viability at 24 h, 100 µM [8] was 80 ± 3% and the activity at 3 h, 100 µM [9] was 83.7 ± 2.1%.

For `Clc1ccc(C2CO2)cc1` (stereo not drawn) [4-chlorostyrene oxide], the “Rate constant for production” value [1] was 16.1 ± 2.08 min⁻¹.

With `Fc1ccc(C2CO2)cc1` (stereo not drawn) [4-fluorostyrene oxide] the “Rate constant for production” value [1] was 15.7 ± 1.57 min⁻¹.

In the case of `C=Cc1ccc(I)cc1` [4-iodostyrene], the “Toxicity to CYP2E1 cells compared with another compound” value ([4]; human) is reported as “more toxic than 4-bromostyrene” and the “Stability” value [10] is reported as “unstableness”.

For `C=Cc1ccc(Cl)cc1` [Cl-ST, 4-chlorostyrene], the viability at 24 h, 100 µM (in vitro [3]) was 57.7 ± 9.9%, the “Decrease in cell viability relative to vehicle group” value ([4]; human) was 57.7% and the “Bioactivation index (k × Vmax/Km)” value (recombinant human CYP2E1) was 15.8 ± 2.03 ^b. It also gave an activity at 3 h, 100 µM (in vitro [6]) of 71.2 ± 5.8%.

In the case of `C=Cc1ccc(F)cc1` [F-ST, 4-fluorostyrene], the viability at 24 h, 100 µM (in vitro [3]) is reported as 78.8 ± 3.2%, the “Toxicity to CYP2E1 cells compared with another compound” value [4] is reported as “little difference in toxicity” and the “Bioactivation index (k × Vmax/Km)” value (recombinant human CYP2E1) is reported as 10.4 ± 0.64 ^a. For the same compound, the “Binding load (radioactivity bound to cellular proteins)” value [5] was 2.27 nmol/mg protein and the activity at 3 h, 100 µM (in vitro [6]) was 82.4 ± 2.2%.
